“And” between values parts separate entries of the source, which are not always exact repeats. Equal entries are not always repeated. Where two headings read alike, the source gives them in different places.
Legend:
hCA VB = target: T1, hCA VB (Homo sapiens, UniProt Q9Y2D0); test: Stopped-Flow CO2 hydrase assay, hCA VB; assay type: biochemical; conditions: mean from 3 assays, errors ± 5–10%
T1 construct: made in house
Method: (§1) An Applied Photophysics stopped-flow instrument has been used for assaying the CA catalysed CO2 hydration activity[47]. […] The CO2 concentrations ranged from 1.7 to 17 mM for the determination of the kinetic parameters and inhibition constants. […] The uncatalysed rates were determined in the same manner and subtracted from the total observed rates. Stock solutions of inhibitor (0.1 mM) were prepared in distilled − deionized water and dilutions up to 0.01 nM were done thereafter with the assay buffer. Inhibitor and enzyme solutions were preincubated together for 15 min at room temperature before assay to allow for the formation of the E − I complex. The inhibition constants were obtained by nonlinear least-squares methods using PRISM 3 and the Cheng − Prusoff equation, as reported earlier[48]^,[49], and represent the mean from at least three different determinations. […] All hCA isoforms were recombinant ones obtained in-house as reported earlier[50].

hCA VA = target: T2, hCA VA (Homo sapiens, UniProt P35218); test: Stopped-Flow CO2 hydrase assay, hCA VA; assay type: biochemical; conditions: stopped-flow CO2 hydrase, mean from 3 assays, errors ± 5–10%; read-out: KI hCA VA
T2 construct: made in house
T2 sequence (P35218 39-305): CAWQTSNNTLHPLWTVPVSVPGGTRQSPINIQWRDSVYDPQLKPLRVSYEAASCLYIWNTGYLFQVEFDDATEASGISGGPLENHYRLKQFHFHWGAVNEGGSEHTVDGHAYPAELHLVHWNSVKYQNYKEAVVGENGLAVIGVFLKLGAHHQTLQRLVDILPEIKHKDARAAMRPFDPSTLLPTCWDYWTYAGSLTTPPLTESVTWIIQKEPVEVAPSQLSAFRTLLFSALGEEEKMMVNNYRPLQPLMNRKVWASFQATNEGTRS
Method: as §1

hCA I = target: T3, hCA I (Homo sapiens, UniProt P00915); test: Stopped-Flow CO2 hydrase assay, hCA I; assay type: biochemical; conditions: mean from 3 assays, errors ± 5–10%
T3 construct: made in house
T3 sequence (P00915 whole entry): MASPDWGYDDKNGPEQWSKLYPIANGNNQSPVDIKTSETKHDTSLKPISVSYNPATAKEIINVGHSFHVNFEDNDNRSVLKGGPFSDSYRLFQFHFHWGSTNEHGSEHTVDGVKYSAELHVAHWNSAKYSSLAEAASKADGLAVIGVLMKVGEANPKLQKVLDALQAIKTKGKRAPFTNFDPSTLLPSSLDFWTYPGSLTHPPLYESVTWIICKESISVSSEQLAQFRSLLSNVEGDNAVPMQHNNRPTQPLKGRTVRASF
Method: as §1

hCA VII = target: T4, hCA VII (Homo sapiens, UniProt P43166); test: Stopped-Flow CO2 hydrase assay, hCA VII; assay type: biochemical; conditions: mean from 3 assays, errors ± 5–10%
T4 construct: made in house
T4 sequence (P43166 whole entry): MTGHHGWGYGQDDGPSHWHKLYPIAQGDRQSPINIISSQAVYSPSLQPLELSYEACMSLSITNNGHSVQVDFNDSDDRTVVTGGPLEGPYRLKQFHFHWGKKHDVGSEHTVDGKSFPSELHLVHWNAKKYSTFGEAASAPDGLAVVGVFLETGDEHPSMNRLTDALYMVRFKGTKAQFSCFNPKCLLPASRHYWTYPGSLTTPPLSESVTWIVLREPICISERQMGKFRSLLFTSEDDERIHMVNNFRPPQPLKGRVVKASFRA
Method: as §1

hCA IV = target: T5, hCA IV (Homo sapiens, UniProt P22748); test: Stopped-Flow CO2 hydrase assay, hCA IV; assay type: biochemical; conditions: mean from 3 assays, errors ± 5–10%
T5 construct: made in house
T5 sequence (P22748 19-312): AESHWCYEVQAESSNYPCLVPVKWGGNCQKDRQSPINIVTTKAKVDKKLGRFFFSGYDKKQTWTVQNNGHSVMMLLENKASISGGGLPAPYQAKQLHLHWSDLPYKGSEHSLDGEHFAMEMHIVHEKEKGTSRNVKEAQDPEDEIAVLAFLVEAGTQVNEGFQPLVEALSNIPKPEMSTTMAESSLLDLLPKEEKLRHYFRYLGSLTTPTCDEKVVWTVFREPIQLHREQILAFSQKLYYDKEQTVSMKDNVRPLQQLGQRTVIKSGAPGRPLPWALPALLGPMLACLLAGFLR
Method: as §1

hCA XII = target: T6, hCA XII (Homo sapiens, UniProt O43570); test: Stopped-Flow CO2 hydrase assay, hCA XII; assay type: biochemical; conditions: mean from 3 assays, errors ± 5–10%
T6 construct: made in house
T6 sequence (O43570 25-354): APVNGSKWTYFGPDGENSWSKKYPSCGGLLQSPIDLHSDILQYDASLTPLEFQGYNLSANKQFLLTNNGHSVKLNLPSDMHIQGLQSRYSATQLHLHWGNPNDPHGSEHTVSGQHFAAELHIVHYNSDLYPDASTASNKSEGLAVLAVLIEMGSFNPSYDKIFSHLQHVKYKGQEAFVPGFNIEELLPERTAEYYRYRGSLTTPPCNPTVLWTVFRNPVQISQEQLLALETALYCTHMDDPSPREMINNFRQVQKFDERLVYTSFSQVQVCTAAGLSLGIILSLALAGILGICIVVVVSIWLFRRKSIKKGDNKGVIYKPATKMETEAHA
Method: as §1

hCA III [1] = target: T7, hCA III (Homo sapiens, UniProt P07451); test: Stopped-Flow CO2 hydrase assay, hCA III; assay type: biochemical; conditions: for Selectivity Index (SI) hCA I/hCA III: ratio of KI hCA I to KI hCA III; for Selectivity Index (SI) hCA II/hCA III: ratio of KI hCA II to KI hCA III; for Ki: stopped-flow CO2 hydrase, mean from 3 assays, errors ± 5–10%
T7 construct: made in house
T7 sequence (P07451 whole entry): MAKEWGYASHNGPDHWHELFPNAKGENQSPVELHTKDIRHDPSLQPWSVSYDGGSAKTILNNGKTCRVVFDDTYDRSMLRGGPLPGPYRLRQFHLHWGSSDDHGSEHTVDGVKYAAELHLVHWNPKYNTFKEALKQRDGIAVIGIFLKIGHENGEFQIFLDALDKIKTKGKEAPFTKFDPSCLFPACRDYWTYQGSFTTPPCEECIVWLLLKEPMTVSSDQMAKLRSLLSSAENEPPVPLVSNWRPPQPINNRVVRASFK
Method: as §1

hCA II = target: T8, hCA II (Homo sapiens, UniProt P00918); test: Stopped-Flow CO2 hydrase assay, hCA II; assay type: biochemical; conditions: mean from 3 assays, errors ± 5–10%
T8 construct: made in house
Method: as §1

hCA III [2] = target: T7, hCA III; design: method as in PMID 23605884; conditions: HPLC assay; cited from earlier work

T1 sequence (Q9Y2D0 34-317): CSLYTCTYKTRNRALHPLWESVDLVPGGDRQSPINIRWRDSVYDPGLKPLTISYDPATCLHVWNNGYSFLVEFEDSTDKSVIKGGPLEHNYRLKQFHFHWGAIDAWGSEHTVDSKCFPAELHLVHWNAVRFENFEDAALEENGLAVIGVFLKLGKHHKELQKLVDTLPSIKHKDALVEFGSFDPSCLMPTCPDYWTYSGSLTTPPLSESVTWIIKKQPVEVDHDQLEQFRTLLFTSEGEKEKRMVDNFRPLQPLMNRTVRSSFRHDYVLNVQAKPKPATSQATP

| Structure (SMILES) | Ki (hCA VB) | Ki (hCA VA) | Ki (hCA I) | Ki (hCA VII) | Ki (hCA IV) | melting point | Ki (hCA XII) | Selectivity Index (SI) hCA I/hCA III (hCA III [1]) | Selectivity Index (SI) hCA II/hCA III (hCA III [1]) | Ki (hCA III [1]) | Ki (hCA II) | Ki (hCA III [2]) |
| --- | --- | --- | --- | --- | --- | --- | --- | --- | --- | --- | --- | --- |
| CCOC(=O)c1ccc(NC(=O)NCc2cn(CCCCS(N)(=O)=O)nn2)cc1 [Compound 47, Ethyl 4–(3-((1–(4-sulfamoylbutyl)-1H-1,2,3-triazol-4-yl)methyl)ureido)benzoate] | 1.43 µM | 3.82 µM | 6.52 µM | 1.95 µM | 2.6 µM | 259 to 261 °C | 2.83 µM | 13.2 | 1.15 and 1.1 | 0.493 µM | 0.566 µM | – |
| CCOC(=O)c1ccc(NC(=O)NCc2cn(CCCS(N)(=O)=O)nn2)cc1 [Compound 34, Ethyl 4–(3-((1–(3-sulfamoylpropyl)-1H-1,2,3-triazol-4-yl)methyl)ureido)benzoate] | 3.74 µM | 2.65 µM | > 10 µM | 2.31 µM | 4.46 µM | 239 to 241 °C | 4.9 µM | > 18.29 | 4.6 | 0.547 µM | 2.5 µM | – |
| Cc1ccc(NC(=O)NCc2cn(CCCS(N)(=O)=O)nn2)cc1 [Compound 32, 3–(4-((3-(p-Tolyl)ureido)methyl)-1H-1,2,3-triazol-1-yl)propane-1-sulfonamide] | 1.61 µM | 8.7 µM | > 10 µM | 4.4 µM | 6.16 µM | 217 to 218 °C | 5.03 µM | – | 3.8 | 0.772 µM | 2.97 µM | – |
| COc1cccc(OCc2cn(CCCCS(N)(=O)=O)nn2)c1 [Compound 43, 4–(4-((3-Methoxyphenoxy)methyl)-1H-1,2,3-triazol-1-yl)butane-1-sulfonamide] | 1.63 µM | 2.17 µM | 2.32 µM | 3.65 µM | 8.27 µM | 186 to 188 °C | 2.72 µM | 5.2 | 13.44 and 13.4 | 0.444 µM | 5.97 µM | – |
| COc1cc(C(=O)O)ccc1O [vanillic acid] | – | – | – | – | – | – | – | – | – | – | – | 87 µM |
| NS(=O)(=O)CCCn1cc(COc2ccccc2)nn1 [Compound 27, 3–(4-(Phenoxymethyl)-1H-1,2,3-triazol-1-yl)propane-1-sulfonamide] | 2.89 µM | 3.87 µM | 0.76 µM | 2.7 µM | 4.72 µM | 254 to 255 °C | 2.69 µM | 1.16 and 1.2 | 4.2 | 0.654 µM | 2.72 µM | – |

Further lines, with some results ahead:

| Ki (hCA VB) | Ki (hCA VA) | Ki (hCA I) | Ki (hCA VII) | Ki (hCA IV) | melting point | Ki (hCA XII) | Selectivity Index (SI) hCA I/hCA III (hCA III [1]) | Selectivity Index (SI) hCA II/hCA III (hCA III [1]) | Ki (hCA III [1]) | Ki (hCA II) | Structure (SMILES) | Ki (hCA III [2]) |
| --- | --- | --- | --- | --- | --- | --- | --- | --- | --- | --- | --- | --- |
| 5.87 µM | 1.8 µM | 5.39 µM | 3.61 µM | 3.59 µM | > 300 °C | 2.63 µM | 9.7 | 1.6 | 0.553 µM | 0.879 µM | NS(=O)(=O)CCCCn1cc(CNC(=O)Nc2ccc(C(F)(F)F)cc2)nn1 [Compound 46, 4–(4-((3–(4-(Trifluoromethyl)phenyl)ureido)methyl)-1H-1,2,3-triazol-1-yl)butane-1-sulfonamide] | – |
| 5.87 µM | 5.7 µM | > 10 µM | 4.57 µM | 5.94 µM and 5.93 µM | 249 to 252 °C | 1.5 µM | – | 3.5 | 0.826 µM | 2.9 µM | NS(=O)(=O)CCCn1cc(CNC(=O)Nc2ccc(F)cc2)nn1 [Compound 31, 3–(4-((3–(4-Fluorophenyl)ureido)methyl)-1H-1,2,3-triazol-1-yl)propane-1-sulfonamide] | – |
| 8.11 µM | 3.34 µM | 5.3 µM | 5.64 µM | 5.74 µM | 271 to 272 °C | 6.73 µM | 5.7 | 5.3 | 0.93 µM | 4.93 µM | Cc1ccc(NC(=O)NCc2cn(CCCCS(N)(=O)=O)nn2)cc1 [Compound 45, 4–(4-((3-(p-Tolyl)ureido)methyl)-1H-1,2,3-triazol-1-yl)butane-1-sulfonamide] | – |

Source: paper PMC10128460, “Discovery of the first-in-class potent and isoform-selective human carbonic anhydrase III inhibitors” (Journal of Enzyme Inhibition and Medicinal Chemistry, 2023)
